Literature values as cited in patent publication US20230233510A1, “CYSTEINE PROTEASE INHIBITORS FOR USE IN THE PREVENTION AND/OR TREATMENT OF CORONAVIRUS” (ALBERT-LUDWIGS-UNIVERSITÄT FREIBURG, priority 2020, published 2023).

How the values were obtained:
SARS-CoV = conditions: HeLa cells expressing ACE2 and TMPRSS2
[1] = tested on: human coronavirus NL63 (HCoV-NL63); conditions: HeLa cells expressing ACE2 and TMPRSS2

## CN(C)C(=O)COC(=O)Cc1ccc(OC(=O)c2ccc(NC(=N)N)cc2)cc1 [camostat, (4-{2-[2-(Dimethylamino)-2-oxoethoxy]-2-oxoethyl}phenyl)(4-carbamimidamidobenzoate)]
SARS-CoV
  block of infection: partially blocked infection
[1]
  block of infection: partially blocked infection
